Among the data in ChEMBL document CHEMBL3632622, “Synthesis and biological evaluation of novel N-phenyl ureidobenzenesulfonate derivatives as potential anticancer agents. Part 2. Modulation of the ring B” (Eur J Med Chem, 2015) are IC50 and Activity values, retold here.

Test [1] relates to M21. Put plainly: Antiproliferative activity against human M21 cells assessed as growth inhibition incubated for 48 hrs by sulforhodamine B assay. The format is functional, cell-based. Particulars: M21, 48 h.
Test [2] concerns M21. Nature of the test: Cell cycle arrest in human M21 cells assessed as accumulation at S phase at 43 uM after 24 hrs by DAPI staining-based flow cytometry (reference value: 17.4%). The format is functional.
In test [3] the test system is M21. Nature of the test: Cell cycle arrest in human M21 cells assessed as accumulation at G0/G1 phase at 43 uM after 24 hrs by DAPI staining-based flow cytometry (reference value: 65.1%). The format is functional. (In general: Flow cytometry measures light scatter and fluorescence of single cells or particles in a stream.)
The test system of test [4] is M21. Put plainly: Cell cycle arrest in human M21 cells assessed as accumulation at subG1 phase at 43 uM after 24 hrs by DAPI staining-based flow cytometry (reference value: 1.5%). The format is functional.
The test system of another test is MCF7. Nature of the test: Antiproliferative activity against human MCF7 cells assessed as growth inhibition incubated for 48 hrs by sulforhodamine B assay. In kind it is functional, cell-based. The settings on record: MCF7, 48 h. In general terms: The SRB assay estimates cell density from bound dye.
In the next test the test system is HT-29. Nature of the test: Antiproliferative activity against human HT-29 cells assessed as growth inhibition incubated for 48 hrs by sulforhodamine B assay. The settings on record: HT-29, 48 h. In kind it is functional, cell-based.
The subject of test [5] is M21. Put plainly: Cell cycle arrest in human M21 cells assessed as accumulation at G2/M phase at 43 uM after 24 hrs by DAPI staining-based flow cytometry (reference value: 16%). In kind it is functional.
Test [6] can be described thus: Antiproliferative activity against human HT1080 cells assessed as growth inhibition incubated for 48 hrs by sulforhodamine B assay. The format is functional, cell-based, HT-1080. Particulars: Homo sapiens, HT-1080, 48 h; read-out: IC50.
The subject of test [7] is M21. Nature of the test: Cell cycle arrest in human M21 cells assessed as accumulation at subG1 phase at 32 uM after 24 hrs by DAPI staining-based flow cytometry (reference value: 1.5%). The format is functional.
In test [8] the test system is M21. Put plainly: Cell cycle arrest in human M21 cells assessed as accumulation at G2/M phase at 32 uM after 24 hrs by DAPI staining-based flow cytometry (reference value: 16%). The format is functional.
Test [9] deals with M21. Nature of the test: Cell cycle arrest in human M21 cells assessed as accumulation at G0/G1 phase at 32 uM after 24 hrs by DAPI staining-based flow cytometry (reference value: 65.1%). The format is functional.
Test [10] relates to M21. Put plainly: Cell cycle arrest in human M21 cells assessed as accumulation at S phase at 32 uM after 24 hrs by DAPI staining-based flow cytometry (reference value: 17.4%). The format is functional.
Test [11] concerns M21. Put plainly: Cell cycle arrest in human M21 cells assessed as accumulation at G2/M phase at 3.8 uM after 24 hrs by DAPI staining-based flow cytometry (reference value: 16%). In kind it is functional.
For test [12], the system named is M21. Put plainly: Cell cycle arrest in human M21 cells assessed as accumulation at G0/G1 phase at 3.8 uM after 24 hrs by DAPI staining-based flow cytometry (reference value: 65.1%). The format is functional.
Test [13] relates to M21. Put plainly: Cell cycle arrest in human M21 cells assessed as accumulation at S phase at 3.8 uM after 24 hrs by DAPI staining-based flow cytometry (reference value: 17.4%). In kind it is functional.
Test [14] relates to M21. Nature of the test: Cell cycle arrest in human M21 cells assessed as accumulation at subG1 phase at 3.8 uM after 24 hrs by DAPI staining-based flow cytometry (reference value: 1.5%). The format is functional.
Test [15] deals with M21. Nature of the test: Cell cycle arrest in human M21 cells assessed as accumulation at G0/G1 phase at 1.2 uM after 24 hrs by DAPI staining-based flow cytometry (reference value: 65.1%). In kind it is functional.
The subject of test [16] is M21. Nature of the test: Cell cycle arrest in human M21 cells assessed as accumulation at S phase at 1.2 uM after 24 hrs by DAPI staining-based flow cytometry (reference value: 17.4%). The format is functional.
The test system of test [17] is M21. Put plainly: Cell cycle arrest in human M21 cells assessed as accumulation at subG1 phase at 1.2 uM after 24 hrs by DAPI staining-based flow cytometry (reference value: 1.5%). In kind it is functional.
The test system of test [18] is M21. Put plainly: Cell cycle arrest in human M21 cells assessed as accumulation at G2/M phase at 1.2 uM after 24 hrs by DAPI staining-based flow cytometry (reference value: 16%). In kind it is functional.
In test [19] the test system is M21. Nature of the test: Cell cycle arrest in human M21 cells assessed as accumulation at subG1 phase at 49 uM after 24 hrs by DAPI staining-based flow cytometry (reference value: 1.5%). The format is functional.
The test system of test [20] is M21. Put plainly: Cell cycle arrest in human M21 cells assessed as accumulation at G0/G1 phase at 49 uM after 24 hrs by DAPI staining-based flow cytometry (reference value: 65.1%). The format is functional.
Test [21] deals with M21. Put plainly: Cell cycle arrest in human M21 cells assessed as accumulation at S phase at 49 uM after 24 hrs by DAPI staining-based flow cytometry (reference value: 17.4%). The format is functional.
In test [22] the test system is M21. Put plainly: Cell cycle arrest in human M21 cells assessed as accumulation at G2/M phase at 49 uM after 24 hrs by DAPI staining-based flow cytometry (reference value: 16%). In kind it is functional.
In test [23] the test system is M21. Put plainly: Cell cycle arrest in human M21 cells assessed as accumulation at G0/G1 phase at 40 uM after 24 hrs by DAPI staining-based flow cytometry (reference value: 65.1%). In kind it is functional.
The subject of test [24] is M21. Put plainly: Cell cycle arrest in human M21 cells assessed as accumulation at G2/M phase at 40 uM after 24 hrs by DAPI staining-based flow cytometry (reference value: 16%). In kind it is functional.
In test [25] the test system is M21. Nature of the test: Cell cycle arrest in human M21 cells assessed as accumulation at S phase at 40 uM after 24 hrs by DAPI staining-based flow cytometry (reference value: 17.4%). The format is functional.
In test [26] the test system is M21. Nature of the test: Cell cycle arrest in human M21 cells assessed as accumulation at subG1 phase at 40 uM after 24 hrs by DAPI staining-based flow cytometry (reference value: 1.5%). In kind it is functional.
Test [27] concerns M21. Put plainly: Cell cycle arrest in human M21 cells assessed as accumulation at G0/G1 phase at 1.7 uM after 24 hrs by DAPI staining-based flow cytometry (reference value: 65.1%). In kind it is functional.
Test [28] concerns M21. Nature of the test: Cell cycle arrest in human M21 cells assessed as accumulation at G2/M phase at 1.7 uM after 24 hrs by DAPI staining-based flow cytometry (reference value: 16%). The format is functional.
Test [29] relates to M21. Put plainly: Cell cycle arrest in human M21 cells assessed as accumulation at S phase at 1.7 uM after 24 hrs by DAPI staining-based flow cytometry (reference value: 17.4%). In kind it is functional.
The subject of test [30] is M21. Put plainly: Cell cycle arrest in human M21 cells assessed as accumulation at subG1 phase at 1.7 uM after 24 hrs by DAPI staining-based flow cytometry (reference value: 1.5%). The format is functional.

The IC50 is the concentration that gives 50% inhibition.

Turning to `CCCCOc1ccc(OS(=O)(=O)c2ccc(NC(=O)NCCCl)cc2)cc1`, the IC50 in the test on M21 [1] was 7.7 µM; in the test on MCF7, 7.1 µM; with HT-29, 6.5 µM; in [6] it was 3.4 µM. Moreover, the Activity in the test on M21 [2] is 9.1%; with M21 [3], 39.7%; in the test on M21 [4], 8.3%; in the test on M21 [5] it was 42.9%.

Regarding `O=C(NCCCl)Nc1ccc(S(=O)(=O)Oc2cc(F)cc(F)c2)cc1`, the IC50 in the test on M21 [1] is 5 µM; in the test on MCF7, 5.7 µM; in the test on HT-29, 4.8 µM; in [6], 5.7 µM. The Activity in the test on M21 [7] is reported as 6.7%; with M21 [8], 75.7%; in the test with M21 [9] it was 7.4%; in the test with M21 [10], 10.2%.

Consider `O=C(NCCCl)Nc1ccc(S(=O)(=O)Oc2cc(Cl)cc(Cl)c2)cc1`, for which the Activity in the test on M21 [11] is recorded as 84.3%; in the test on M21 [12] it was 2.5%; in the test on M21 [13], 6%; in the test with M21 [14], 7.2%. Besides, the half-maximal inhibitory concentration (IC50) in the test with M21 [1] stood at 0.51 µM; in the test on MCF7, 1 µM; in the test on HT-29 it was 0.55 µM; in [6], 1.1 µM.

Consider `O=C(NCCCl)Nc1ccc(S(=O)(=O)Oc2cc(Br)cc(Br)c2)cc1`, for which the Activity turned out to be 2.6% in the test on M21 [15], 6.9% in the test with M21 [16], 7.1% in the test with M21 [17] and 83.4% in the test on M21 [18]. The IC50 with M21 [1] is 0.24 µM; with MCF7, 0.4 µM; with HT-29, 0.3 µM; in [6], 0.4 µM.

As for `CCOc1ccc(OS(=O)(=O)c2ccc(NC(=O)NCCCl)cc2)cc1`, the IC50 is 8.3 µM with M21 [1], 9.5 µM in the test on MCF7, 7.8 µM with HT-29 and 8.3 µM in [6]. Moreover, the Activity was found to be 3.5% with M21 [19], 13.4% in the test with M21 [20], 8.2% in the test with M21 [21] and 74.9% with M21 [22].

Turning to `O=C(NCCCl)Nc1ccc(S(=O)(=O)Oc2ccc(Br)cc2)cc1`, the IC50 in the test with M21 [1] was 8.1 µM; with MCF7, 9.4 µM; in the test with HT-29, 8.3 µM; in test [6] it was 9.6 µM. Further, the Activity in the test on M21 [23] was 12%; in the test with M21 [24], 76.1%; with M21 [25], 4.4%; in the test on M21 [26], 7.5%.

Turning to `COc1cc(OS(=O)(=O)c2ccc(NC(=O)NCCCl)cc2)cc(OC)c1OC`, the IC50 with M21 [1] stood at 0.47 µM; in the test with MCF7 it was 0.66 µM; with HT-29 it was 0.5 µM; in test [6], 0.64 µM. Besides, the Activity in the test on M21 [27] was 15.6%; in the test with M21 [28], 66.1%; with M21 [29], 9%; in the test with M21 [30], 9.3%.
